Data reported in patent publication US20050282743A1, “Molecular interactions in cells” (Arbor Vita Corporation, priority 2001, published 2005).
Ends that are not written are not given here. Peptide text beside a SMILES is read from it. * marks the point of attachment. Biotin = O=C1N[C@H]2[C@H](CS[C@H]2CCCCC(=O)*)N1

Columns and labels:
[1] = molecular target: T1, PDZ protein (GST-PDZ fusion) (Homo sapiens, UniProt Q9UDY2); assay: G' assay (10 uM PL peptide), results of TABLE 7 and TABLE 12; assay type: binding
T1 construct: made in house; host or cells: E. coli (DH5alpha, BL21 or JM109)
T1 sequence (Q9UDY2 1-1190): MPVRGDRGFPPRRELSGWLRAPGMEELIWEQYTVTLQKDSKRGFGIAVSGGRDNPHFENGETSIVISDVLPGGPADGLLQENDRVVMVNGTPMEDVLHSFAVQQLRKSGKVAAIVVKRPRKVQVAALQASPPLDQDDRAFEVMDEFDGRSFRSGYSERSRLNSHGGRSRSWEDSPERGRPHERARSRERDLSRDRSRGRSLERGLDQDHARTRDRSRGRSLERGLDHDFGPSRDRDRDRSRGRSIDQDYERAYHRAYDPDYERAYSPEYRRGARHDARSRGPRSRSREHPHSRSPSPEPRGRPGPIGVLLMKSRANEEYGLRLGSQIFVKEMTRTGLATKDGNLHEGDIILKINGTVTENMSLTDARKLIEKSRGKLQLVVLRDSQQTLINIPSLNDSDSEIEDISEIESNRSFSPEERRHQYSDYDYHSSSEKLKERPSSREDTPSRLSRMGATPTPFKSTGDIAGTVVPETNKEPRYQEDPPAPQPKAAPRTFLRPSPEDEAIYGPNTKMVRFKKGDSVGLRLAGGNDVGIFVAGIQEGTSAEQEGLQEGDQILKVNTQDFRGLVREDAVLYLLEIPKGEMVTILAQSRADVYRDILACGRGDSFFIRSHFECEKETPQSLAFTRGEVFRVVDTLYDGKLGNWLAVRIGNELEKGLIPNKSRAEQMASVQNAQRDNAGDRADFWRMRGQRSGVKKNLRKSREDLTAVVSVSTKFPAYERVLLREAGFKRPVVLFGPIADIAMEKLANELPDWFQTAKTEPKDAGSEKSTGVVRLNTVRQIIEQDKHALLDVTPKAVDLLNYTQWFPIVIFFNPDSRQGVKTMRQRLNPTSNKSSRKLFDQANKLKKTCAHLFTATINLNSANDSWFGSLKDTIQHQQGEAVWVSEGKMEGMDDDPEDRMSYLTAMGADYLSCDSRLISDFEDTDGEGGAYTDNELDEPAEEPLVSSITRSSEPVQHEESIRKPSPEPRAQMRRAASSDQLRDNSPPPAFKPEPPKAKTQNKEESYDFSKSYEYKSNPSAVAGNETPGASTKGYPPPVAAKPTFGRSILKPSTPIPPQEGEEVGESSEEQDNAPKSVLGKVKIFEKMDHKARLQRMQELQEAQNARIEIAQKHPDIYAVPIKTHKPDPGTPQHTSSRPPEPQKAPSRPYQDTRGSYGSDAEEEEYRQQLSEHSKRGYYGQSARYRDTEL
How it was run: (§1)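 Binding classes derive from A450 nm of bound biotin-tagged PL peptide. A score of 5 needs A450 above 4 in more than two repeats.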

[2] = molecular target: T2, PDZ protein (GST-PDZ fusion) (Homo sapiens, UniProt Q96RT1); assay: as above; assay type: binding; conditions: PDZ Erbin, PDZ Domain 1
T2 construct: made in house; host or cells: E. coli (DH5alpha, BL21 or JM109)
T2 sequence (Q96RT1 whole entry, the tested form may be a part): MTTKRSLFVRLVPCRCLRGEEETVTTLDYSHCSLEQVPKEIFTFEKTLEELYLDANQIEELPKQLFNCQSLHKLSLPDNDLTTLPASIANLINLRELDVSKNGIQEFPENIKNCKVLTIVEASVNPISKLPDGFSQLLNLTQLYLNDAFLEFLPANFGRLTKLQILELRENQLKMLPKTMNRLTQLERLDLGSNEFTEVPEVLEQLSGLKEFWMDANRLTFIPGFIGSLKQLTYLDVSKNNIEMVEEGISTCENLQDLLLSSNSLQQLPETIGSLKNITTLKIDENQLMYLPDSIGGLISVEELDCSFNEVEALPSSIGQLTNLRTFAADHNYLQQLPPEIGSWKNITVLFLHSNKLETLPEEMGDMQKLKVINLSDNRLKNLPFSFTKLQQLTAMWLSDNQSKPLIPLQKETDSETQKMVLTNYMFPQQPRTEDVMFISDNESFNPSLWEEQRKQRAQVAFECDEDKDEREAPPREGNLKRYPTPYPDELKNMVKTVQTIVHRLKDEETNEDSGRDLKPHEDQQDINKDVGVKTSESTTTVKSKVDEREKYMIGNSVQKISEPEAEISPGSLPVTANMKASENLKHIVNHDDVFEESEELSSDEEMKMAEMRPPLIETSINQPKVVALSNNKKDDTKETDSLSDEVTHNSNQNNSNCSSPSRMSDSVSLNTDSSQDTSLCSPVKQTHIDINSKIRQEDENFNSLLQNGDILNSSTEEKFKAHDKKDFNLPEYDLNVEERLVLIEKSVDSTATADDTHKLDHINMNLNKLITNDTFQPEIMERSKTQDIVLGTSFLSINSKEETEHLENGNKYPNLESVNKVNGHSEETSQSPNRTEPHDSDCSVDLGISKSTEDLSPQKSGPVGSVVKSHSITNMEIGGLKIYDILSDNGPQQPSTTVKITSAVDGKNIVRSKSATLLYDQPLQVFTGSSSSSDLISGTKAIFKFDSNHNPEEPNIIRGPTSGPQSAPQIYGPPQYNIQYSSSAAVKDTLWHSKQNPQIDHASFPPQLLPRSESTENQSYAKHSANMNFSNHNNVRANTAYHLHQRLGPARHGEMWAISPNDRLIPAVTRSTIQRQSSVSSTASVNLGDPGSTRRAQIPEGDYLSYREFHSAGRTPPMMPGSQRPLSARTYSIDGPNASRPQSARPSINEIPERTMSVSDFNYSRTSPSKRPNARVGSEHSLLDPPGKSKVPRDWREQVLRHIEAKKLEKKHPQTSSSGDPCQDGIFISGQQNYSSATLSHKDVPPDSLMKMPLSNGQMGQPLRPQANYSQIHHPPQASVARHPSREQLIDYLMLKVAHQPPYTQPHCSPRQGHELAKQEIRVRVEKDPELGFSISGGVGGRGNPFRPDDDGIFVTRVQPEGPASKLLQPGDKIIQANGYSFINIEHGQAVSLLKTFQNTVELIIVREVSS
How it was run: as §1

CC(C)C[C@H](NC(=O)[C@H](CCCNC(=N)N)NC(=O)CNC(=O)CNC(=O)[C@H](CCCNC(=N)N)NC(=O)[C@H](C)NC(=O)[C@@H]1CCCN1C(=O)[C@H](CCCNC(=N)N)NC(=O)CNC(=O)CNC(=O)[C@@H](NC(=O)[C@H](C)NC(=O)CCCC[C@@H]1SC[C@@H]2NC(=O)N[C@@H]21)C(C)C)C(=O)N[C@@H](CCC(N)=O)C(=O)NCC(=O)N[C@@H](CCCNC(=N)N)C(=O)N[C@@H](CCCNC(=N)N)C(=O)N[C@@H](CCC(N)=O)C(=O)N[C@H](C(=O)N[C@@H](CCC(N)=O)C(=O)N[C@H](C(=O)O)C(C)C)[C@@H](C)O [HPV E6 58 (modified)] (Biotin-AVGGRPARGGRLQGRRQTQV-OH; C-terminus assumed)
Classification ([1]; PDZ ZO-2, PDZ Domain 1): 3 (A450 nm 2-3)

GPVPGEPAKPKTSAHHATFV (Biotin-GPVPGEPAKPKTSAHHATFV)
Classification ([1]; PDZ ZO-2, PDZ Domain 1): 1 (A450 nm 0-1)

CC[C@H](C)[C@H](NC(=O)[C@H](CC(=O)O)NC(=O)[C@H](CCC(=O)O)NC(=O)[C@H](CCCNC(=N)N)NC(=O)[C@@H](NC(=O)CCCC[C@@H]1SC[C@@H]2NC(=O)N[C@@H]21)[C@@H](C)O)C(=O)N[C@@H](Cc1ccc(O)cc1)C(=O)N[C@H](C(=O)N[C@@H](CC(N)=O)C(=O)N[C@@H](Cc1ccc(O)cc1)C(=O)N1CCC[C@H]1C(=O)N[C@H](C(=O)N[C@@H](Cc1ccccc1)C(=O)N[C@@H](CO)C(=O)N[C@@H](CCCNC(=N)N)C(=O)N[C@@H](CCCNC(=N)N)C(=O)N1CCC[C@H]1C(=O)N[C@@H](CCCCN)C(=O)N[C@H](C(=O)N[C@@H](CCCNC(=N)N)C(=O)N[C@H](C(=O)O)C(C)C)[C@@H](C)O)[C@@H](C)O)C(C)C [DNAM-1] (Biotin-TREDIYVNYPTFSRRPKTRV-OH; C-terminus assumed)
Classification ([1]; PDZ ZO-2, PDZ Domain 1): 3 (A450 nm 2-3)

CC[C@H](C)[C@H](NC(=O)[C@H](CCCCN)NC(=O)[C@@H](NC(=O)[C@H](CO)NC(=O)[C@@H]1CCCN1C(=O)[C@H](Cc1ccccc1)NC(=O)[C@@H](NC(=O)[C@@H](NC(=O)[C@H](CCCNC(=N)N)NC(=O)[C@H](CCC(=O)O)NC(=O)[C@H](CC(C)C)NC(=O)[C@H](CC(C)C)NC(=O)[C@H](CC(C)C)NC(=O)[C@@H](NC(=O)CNC(=O)[C@@H](NC(=O)CCCC[C@@H]1SC[C@@H]2NC(=O)N[C@@H]21)C(C)C)[C@@H](C)O)C(C)C)[C@@H](C)CC)C(C)C)C(=O)N[C@@H](C)C(=O)N[C@H](C(=O)N[C@@H](CC(C)C)C(=O)N[C@H](C(=O)O)C(C)C)[C@@H](C)O [Adenovirus E4 Type9]
Classification ([1]; PDZ ZO-2, PDZ Domain 1, PL peptide 10 uM): 3 (A450 nm 2-3)

ELLQFCRTPNPALKNGQYWV (Biotin-ELLQFCRTPNPALKNGQYWV)
Classification ([1]; PDZ ZO-2, PDZ Domain 1): 5 (A450 nm of 4 more than 2× repeated) | Classification ([1]; PDZ ZO-2, PDZ Domain 2): 1 (A450 nm 0-1) | Classification [2]: 3 (A450 nm 2-3)

PYSELNYETSHYPASPDSWV (Biotin-PYSELNYETSHYPASPDSWV) [catenin - delta 2]
Classification [2]: 4 (A450 nm 3-4)

PPATPSPRLALPAHHNATRL (Biotin-PPATPSPRLALPAHHNATRL) [Na+/Pi cotransporter 2]
Classification ([1]; PDZ ZO-2, PDZ Domain 1): 1 (A450 nm 0-1)

A2AA_HUMAN (modified) (Biotin-HDFRRAFKKILARGDRKRIV; not fully specified)
Classification ([1]; PDZ ZO-2, PDZ Domain 2): 2 (A450 nm 1-2)

CC(C)C[C@H](NC(=O)[C@H](C)NC(=O)[C@@H](NC(=O)[C@H](CCC(=O)O)NC(=O)[C@H](CCCNC(=N)N)NC(=O)[C@H](CCCNC(=N)N)NC(=O)CNC(=O)[C@H](CCC(N)=O)NC(=O)[C@H](CC(C)C)NC(=O)[C@H](CCCNC(=N)N)NC(=O)CNC(=O)CNC(=O)[C@H](CCCNC(=N)N)NC(=O)[C@H](C)NC(=O)[C@H](CO)NC(=O)[C@H](CCCNC(=N)N)NC(=O)CNC(=O)CNC(=O)[C@H](C)NC(=O)[C@H](C)NC(=O)CCCC[C@@H]1SC[C@@H]2NC(=O)N[C@@H]21)[C@@H](C)O)C(=O)O [HPV E6 33 (modified)] (Biotin-AAGGRSARGGRLQGRRETAL-OH; C-terminus assumed)
Classification ([1]; PDZ ZO-2, PDZ Domain 1): 1 (A450 nm 0-1)

CC(C)C[C@H](NC(=O)[C@H](C)NC(=O)[C@H](CO)NC(=O)CNC(=O)[C@@H](NC(=O)CCCC[C@@H]1SC[C@@H]2NC(=O)N[C@@H]21)[C@@H](C)O)C(=O)N[C@@H](CCC(N)=O)C(=O)N[C@@H](C)C(=O)N[C@@H](Cc1c[nH]c2ccccc12)C(=O)N[C@@H](CCCNC(=N)N)C(=O)N[C@@H](Cc1c[nH]cn1)C(=O)N[C@H](C(=O)N[C@@H](CO)C(=O)N[C@@H](CCCNC(=N)N)C(=O)N[C@@H](CCC(N)=O)C(=O)N[C@@H](C)C(=O)N[C@H](C(=O)N[C@@H](CCC(=O)O)C(=O)N[C@@H](CO)C(=O)N[C@H](C(=O)N[C@H](C(=O)O)C(C)C)[C@@H](C)O)[C@@H](C)O)[C@@H](C)O [HPV E6 #66 (modified)] (Biotin-TGSALQAWRHTSRQATESTV-OH; C-terminus assumed)
Classification [2]: 1 (A450 nm 0-1)

CC(C)C[C@H](NC(=O)[C@H](CC(=O)O)NC(=O)[C@H](CO)NC(=O)[C@H](CCC(=O)O)NC(=O)CNC(=O)[C@H](Cc1ccc(O)cc1)NC(=O)[C@H](CC(C)C)NC(=O)[C@H](C)NC(=O)[C@H](CO)NC(=O)[C@H](CO)NC(=O)[C@H](Cc1ccccc1)NC(=O)[C@H](C)NC(=O)[C@H](C)NC(=O)[C@H](Cc1ccc(O)cc1)NC(=O)[C@H](CC(=O)O)NC(=O)[C@H](CC(C)C)NC(=O)[C@H](C)NC(=O)CNC(=O)[C@@H]1CCCN1C(=O)[C@@H](NC(=O)CCCC[C@@H]1SC[C@@H]2NC(=O)N[C@@H]21)C(C)C)C(=O)O [a-actinin 2] (Biotin-VPGALDYAAFSSALYGESDL-OH; C-terminus assumed)
Classification [2]: 1 (A450 nm 0-1)

TQGFPGPATWRRISSLESEV
Classification [2]: 4 (A450 nm 3-4)

CSCC[C@H](NC(=O)[C@H](C)NC(=O)[C@H](CCCNC(=N)N)NC(=O)CNC(=O)[C@@H](NC(=O)[C@H](Cc1c[nH]c2ccccc12)NC(=O)[C@H](CCCNC(=N)N)NC(=O)CNC(=O)CCCC[C@@H]1SC[C@@H]2NC(=O)N[C@@H]21)[C@@H](C)O)C(=O)N[C@@H](CO)C(=O)N[C@@H](C)C(=O)N[C@@H](Cc1c[nH]c2ccccc12)C(=O)N[C@@H](CCCCN)C(=O)N1CCC[C@H]1C(=O)N[C@H](C(=O)N[C@@H](CCCNC(=N)N)C(=O)N[C@@H](CCCNC(=N)N)C(=O)N[C@@H](CCC(=O)O)C(=O)N[C@H](C(=O)N[C@@H](CCC(=O)O)C(=O)N[C@H](C(=O)O)C(C)C)[C@@H](C)O)[C@@H](C)O [HPV E6 #35 (modified)] (Biotin-GRWTGRAMSAWKPTRRETEV-OH; C-terminus assumed)
Classification ([1]; PDZ ZO-2, PDZ Domain 1): 2 (A450 nm 1-2) | Classification [2]: 2 (A450 nm 1-2)

CC[C@H](C)[C@H](NC(=O)[C@H](CCC(N)=O)NC(=O)CCCC[C@@H]1SC[C@@H]2NC(=O)N[C@@H]21)C(=O)N[C@@H](CO)C(=O)N1CCC[C@H]1C(=O)NCC(=O)NCC(=O)N[C@@H](CC(C)C)C(=O)N[C@@H](CCC(=O)O)C(=O)N1CCC[C@H]1C(=O)N1CCC[C@H]1C(=O)N[C@@H](CO)C(=O)N[C@@H](CCC(=O)O)C(=O)N[C@@H](CCCCN)C(=O)N[C@@H](Cc1c[nH]cn1)C(=O)N[C@@H](Cc1ccccc1)C(=O)N[C@@H](CCCNC(=N)N)C(=O)N[C@@H](CCC(=O)O)C(=O)N[C@H](C(=O)N[C@@H](CCC(=O)O)C(=O)N[C@H](C(=O)O)C(C)C)[C@@H](C)O [Tax]
Classification [2]: 5 (A450 nm of 4 more than 2× repeated)
